These results are taken from ChEMBL document CHEMBL1127719, “Synthesis and serotonergic activity of benzofuran and dihydrogenzofuran analogues of 5-carboxamidotryptamine” (Bioorg Med Chem Lett, 1994).

The target of assay [1] is T1, 5-hydroxytryptamine receptor 3A (Rattus norvegicus, UniProt P35563).
T1 sequence (P35563 whole entry): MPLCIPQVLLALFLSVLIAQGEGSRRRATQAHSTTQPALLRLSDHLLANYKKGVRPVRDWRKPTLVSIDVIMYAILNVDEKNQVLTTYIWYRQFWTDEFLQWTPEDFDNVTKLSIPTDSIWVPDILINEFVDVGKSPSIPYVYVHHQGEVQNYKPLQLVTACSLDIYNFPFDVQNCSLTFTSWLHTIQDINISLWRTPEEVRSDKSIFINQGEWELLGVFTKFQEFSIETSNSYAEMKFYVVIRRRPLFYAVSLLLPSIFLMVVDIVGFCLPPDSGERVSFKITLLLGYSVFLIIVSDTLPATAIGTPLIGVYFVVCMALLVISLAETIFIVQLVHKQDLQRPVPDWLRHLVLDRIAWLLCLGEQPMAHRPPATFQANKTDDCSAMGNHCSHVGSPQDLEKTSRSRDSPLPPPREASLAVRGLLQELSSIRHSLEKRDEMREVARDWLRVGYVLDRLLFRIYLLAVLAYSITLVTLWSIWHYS
Kind of assay: In Vitro Binding affinity againist 5-hydroxytryptamine 3 receptor by displacing [3H]-Q-ICS 205-930 from rat cortex homogenates.

Assay [2] concerns the target 5-hydroxytryptamine receptor 2A (Rattus norvegicus, UniProt P14842). Briefly: In Vitro Binding affinity againist 5-HT2A receptor by displacing [3H]-DOB from rat cortex homogenates.
Assay [3] is filed under the species Oryctolagus cuniculus. Briefly: In Vitro functional activity in rabbit saphenous vein.
Assay [4] is filed under the species Oryctolagus cuniculus. Kind of assay: Relative maximum in rabbit by obtaining the maximum contraction relative to the maximum response with 1 uM 5-HT. It counts as functional.

Chain of 5-hydroxytryptamine receptor 2A (P14842 whole entry): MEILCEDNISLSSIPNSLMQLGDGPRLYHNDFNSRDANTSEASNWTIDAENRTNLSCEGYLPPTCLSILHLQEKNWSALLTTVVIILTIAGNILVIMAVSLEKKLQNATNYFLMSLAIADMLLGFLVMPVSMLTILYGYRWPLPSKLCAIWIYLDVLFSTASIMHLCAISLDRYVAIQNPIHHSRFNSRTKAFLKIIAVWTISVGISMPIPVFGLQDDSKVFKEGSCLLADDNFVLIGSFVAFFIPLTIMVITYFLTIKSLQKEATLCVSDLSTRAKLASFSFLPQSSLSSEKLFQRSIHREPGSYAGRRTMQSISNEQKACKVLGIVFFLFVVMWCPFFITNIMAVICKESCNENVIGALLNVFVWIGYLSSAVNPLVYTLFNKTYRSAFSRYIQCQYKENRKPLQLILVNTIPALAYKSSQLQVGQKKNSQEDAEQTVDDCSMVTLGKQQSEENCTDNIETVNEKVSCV

On to `CN(C)CCc1coc2ccc(C(N)=O)cc12`, for which the IC50 is 3.98 µM in assay [1] and 3.39 µM in assay [2].

In turn, `NCCc1c[nH]c2ccc(C(N)=O)cc12` gave a concentration giving a half-maximal response (EC50) in assay [3] of 0.0282 µM. In addition, in assay [2], the concentration for half-maximal inhibition (IC50) is 21.9 µM. The Activity in assay [4] was determined as 1.06.

On to `NCCC1COc2ccc(C(N)=O)cc21` (stereo unspecified), for which the half-inhibitory concentration (IC50) in assay [1] is 4.27 µM; in assay [2], greater than 10 µM.

Consider `NCCc1coc2ccc(C(N)=O)cc12`, for which the response in assay [3] was half-maximal at 0.158 µM (EC50). In addition, the values for the IC50 in assay [1] and in assay [2] were 7.41 µM and 1.7 µM, respectively. The same compound yielded an Activity in assay [4] of 1.2.

For orientation: IC50 means the concentration needed to halve the response being measured. Low readings indicate greater potency, high ones weaker potency. The term EC50 denotes the concentration needed to bring the measured effect to its halfway point.
